The values that follow come from patent publication US8455534B2, “Estrogen receptor modulators and uses thereof” (Aragon Pharmaceuticals, Inc., priority 2010, dated 2013).

One experiment deals with T1, ER-α (Homo sapiens, UniProt P03372).
T1 sequence (P03372 1-595): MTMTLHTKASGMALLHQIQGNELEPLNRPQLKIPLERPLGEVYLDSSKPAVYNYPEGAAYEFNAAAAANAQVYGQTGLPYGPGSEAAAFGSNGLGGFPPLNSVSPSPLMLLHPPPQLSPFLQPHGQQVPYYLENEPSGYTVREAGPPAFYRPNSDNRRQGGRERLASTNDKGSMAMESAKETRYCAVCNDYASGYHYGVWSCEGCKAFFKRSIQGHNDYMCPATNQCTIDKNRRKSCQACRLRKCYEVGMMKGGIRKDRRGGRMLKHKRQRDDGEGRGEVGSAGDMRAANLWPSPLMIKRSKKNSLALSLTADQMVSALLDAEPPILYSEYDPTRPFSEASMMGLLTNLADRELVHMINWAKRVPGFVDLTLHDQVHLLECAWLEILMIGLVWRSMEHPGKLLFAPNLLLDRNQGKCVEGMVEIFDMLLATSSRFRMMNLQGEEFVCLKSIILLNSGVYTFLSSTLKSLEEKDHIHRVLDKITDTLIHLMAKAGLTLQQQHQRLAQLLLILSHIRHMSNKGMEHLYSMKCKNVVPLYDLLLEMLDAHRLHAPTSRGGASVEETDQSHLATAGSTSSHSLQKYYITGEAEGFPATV
In words: Breast Cancer Cell ER-α In Cell Western Assay (SP1). The settings on record: MCF-7 cells, SP1 antibody, 4 or 24 hr post compound addition; for Emax: MCF7, read-out: ER-α In Cell Western Assay (SP1) Max Response; for DC50: read-out: ER-α In Cell Western Assay (SP1) IC50. Format: cell-based. The method, then: MCF-7 cells were adjusted to a concentration of 200,000 cells per mL in RPMI containing 10% charcoal-stripped FBS and 20 mM HEPES. 16 microliters of the cell suspension (3200 cells) was added to each well of a poly-D-lysine 384 well plate, and the cells were incubated overnight to allow the cells to adhere. The following day an eleven point, serial semilog dilution of each compound was added to the cells in 16 μL at a final concentration ranging from 0.3-0.000003 μM. At 4 or 24 hr post compound addition, the cells were fixed (10% formalin in PBS) for 20 minutes. Cells were permeablized in PBS 0.1% Triton and blocked with LICOR blocking buffer (50 μL1/well, 90′). The wells were then incubated overnight at 4° C. with SP1 rabbit monoclonal Ab (Thermo Scientific) diluted 1:1000 in LICOR blocking buffer/0.1% Tween-20. Wells which were treated with blocking buffer with Tween but no antibody were used as a background control. Wells were washed with 0.1% Tween-20/PBS and then incubated in goat anti-rabbit IRDye™ 800CW (LICOR Inc.; 1:1000) and DRAQ5 DNA dye (1:2000 for 2 mM stock) diluted in LICOR blocking buffer containing 0.1% Tween-20 and 0.01% SDS for 60 minutes. Cells were washed (50 μl/well, 5′ each) in 0.1% Tween-20/PBS. Plates were scanned on a LICOR Odyssey infrared imaging system. Integrated intensities in the 800 nm channel and 700 nm channel were measured to determine levels of ER and DNA respectively. Percent ER levels were determined as follows: (Integrated intensity 800 nm sample/integrated intensity 700 nm sample)/(Integrated intensity 800 nm untreated cells/integrated intensity 700 nm untreated cells)×100=% ER levels.

Another experiment relates to MCF-7 cells. The experiment in a line: Breast Cancer Cell Viability Assay (MCF-7, CellTiter-Glo). The settings on record: 5 days' compound exposure; for IC50: Homo sapiens, MCF7, 120 h. Format: cell-based. On the procedure: MCF-7 cells were adjusted to a concentration of 20,000 cells per mL in RPMI containing 10% FBS and 20 mM HEPES. 16 microliters of the cell suspension (320 cells) was added to each well of a 384 well plate, and the cells were incubated overnight to allow the cells to adhere. The following day an eleven point, serial semilog dilution of each compound was added to the cells in 16 μL at a final concentration ranging from 0.3-0.000003 μM. After 5 days' compound exposure, 16 μL of CellTiter-GLo (Promega, Madison Wis.) was added to the cells the relative luminescence units (RLUs) of each well was determined CellTiter-Glo added to 32 μL of medium without cells was used to obtain a background value. The Percent viability of each sample was determined as follows: (RLU sample-RLU background/RLU untreated cells-RLU background)×100=% viability.
A general note: In ATP-based viability assays light output follows the ATP content of the culture.

For orientation: IC50 means the midpoint of a concentration-inhibition curve. Read a high IC50 as weaker potency in that assay. With `CC/C(=C(/c1ccc(/C=C/C(=O)O)cc1)c1ccc2[nH]ncc2c1)c1ccccc1Cl` [Compound 14, (E)-3-(4-((E)-2-(2-chlorophenyl)-1-(1H-indazol-5-yl)but-1-en-1-yl)phenyl)acrylic acid], the Emax at ER-α was ≥ 40%. For the same molecule, in the experiment with MCF-7 cells, the “MCF7 Viability Assay Max Response” value was “++ (++ = a single % value ≧ 40%)” and the IC50 was ≤ 100 nM.
Taken in the same sequence, the figures for `CC/C(=C(/c1ccc(/C=C/C(=O)O)cc1)c1ccc2[nH]ncc2c1)c1cccc(Cl)c1` [Compound 15, (E)-3-(4-((E)-2-(3-Chlorophenyl)-1-(1H-indazol-5-yl)but-1-en-1-yl)phenyl)acrylic acid] were ≥ 40%, “++ (++ = a single % value ≧ 40%)” and ≤ 100 nM.
Turning to `CC/C(=C(/c1ccc(/C=C/C(=O)O)cc1)c1ccc2[nH]ncc2c1)c1ccccc1F` [Compound 16, (E)-3-(4-((E)-2-(2-Fluorophenyl)-1-(1H-indazol-5-yl)but-1-en-1-yl)phenyl)acrylic acid], on ER-α, the Emax was ≥ 40% and the DC50 is ≤ 100 nM. In the experiment on MCF-7 cells, the “MCF7 Viability Assay Max Response” value is reported as “++ (++ = a single % value ≧ 40%)” and the IC50 was ≤ 100 nM.
With `CC/C(=C(/c1ccc(/C=C/C(=O)O)cc1)c1ccc2[nH]ncc2c1)c1cccc(F)c1` [Compound 17, (E)-3-(4-((E)-2-(3-Fluorophenyl)-1-(1H-indazol-5-yl)but-1-en-1-yl)phenyl)acrylic acid], at ER-α, the Emax was ≥ 40% and the DC50 is ≤ 100 nM. Further, in the experiment on MCF-7 cells, the “MCF7 Viability Assay Max Response” value is “++ (++ = a single % value ≧ 40%)” and the IC50 was ≤ 100 nM.
For the molecule `CC/C(=C(/c1ccc(/C=C/C(=O)O)cc1)c1ccc2[nH]ncc2c1)c1ccccc1CC` [Compound 18, (E)-3-(4-((E)-2-(2-Ethylphenyl)-1-(1H-indazol-5-yl)but-1-en-1-yl)phenyl)acrylic acid], on ER-α, the Emax is ≥ 40% and the DC50 was ≤ 100 nM. Also, in the experiment on MCF-7 cells, the “MCF7 Viability Assay Max Response” value is “++ (++ = a single % value ≧ 40%)” and the IC50 was ≤ 100 nM.
In the case of `CC/C(=C(/c1ccc(/C=C/C(=O)O)cc1)c1ccc2[nH]ncc2c1)c1ccccc1C(F)(F)F` [Compound 19, (E)-3-(4-((E)-1-(1H-Indazol-5-yl)-2-(2-(trifluoromethyl)phenyl)but-1-en-1-yl)phenyl)acrylic acid], on ER-α, the Emax is ≥ 40% and the DC50 was ≤ 100 nM. Moreover, in the experiment on MCF-7 cells, the “MCF7 Viability Assay Max Response” value is “++ (++ = a single % value ≧ 40%)” and the IC50 is ≤ 100 nM.
Turning to `O=C(O)/C=C/c1ccc(/C(=C(/CCCl)c2ccccc2)c2ccc3[nH]ncc3c2)cc1` [Compound 20, (E)-3-(4-((E)-4-Chloro-1-(1H-indazol-5-yl)-2-phenylbut-1-en-1-yl)phenyl)acrylic acid], at ER-α, the Emax was ≥ 40% and the DC50 was ≤ 100 nM. Further, in the experiment on MCF-7 cells, the “MCF7 Viability Assay Max Response” value is given as “++ (++ = a single % value ≧ 40%)” and the IC50 was ≤ 100 nM.
For the molecule `CC/C(=C(/c1ccc(/C=C/C(=O)O)cc1)c1ccc2[nH]ncc2c1)c1ccccc1C#N` [Compound 21, (E)-3-(4-((E)-2-(2-Cyanophenyl)-1-(1H-indazol-5-yl)but-1-en-1-yl)phenyl)acrylic acid], the Emax at ER-α was ≥ 40%. Further, in the experiment with MCF-7 cells, the “MCF7 Viability Assay Max Response” value was “++ (++ = a single % value ≧ 40%)” and the half-inhibitory concentration (IC50) was ≤ 100 nM.
Turning to `CC/C(=C(/c1ccc(/C=C/C(=O)O)cc1)c1ccc2[nH]ncc2c1)c1ccc(F)cc1F` [Compound 22, (E)-3-(4-((E)-2-(2,4-Difluorophenyl)-1-(1H-indazol-5-yl)but-1-en-1-yl)phenyl)acrylic acid], on ER-α, the Emax was ≥ 40% and the DC50 was ≤ 100 nM. Besides, in the experiment on MCF-7 cells, the “MCF7 Viability Assay Max Response” value is given as “++ (++ = a single % value ≧ 40%)” and the IC50 is ≤ 100 nM.
`CC/C(=C(/c1ccc(/C=C/C(=O)O)cc1)c1ccc2[nH]ncc2c1)c1cccc(F)c1Cl` [Compound 23, (E)-3-(4-((E)-2-(2-Chloro-3-fluorophenyl)-1-(1H-indazol-5-yl)but-1-en-1-yl)phenyl)acrylic acid]: on ER-α, the Emax is ≥ 40% and the DC50 is ≤ 100 nM. In the experiment with MCF-7 cells, the “MCF7 Viability Assay Max Response” value was “++ (++ = a single % value ≧ 40%)” and the IC50 is ≤ 100 nM.
Take `O=C(O)/C=C/c1ccc(/C(=C(\c2ccccc2)C2CC2)c2ccc3[nH]ncc3c2)cc1` [Compound 24, (E)-3-(4-((E)-2-Cyclopropyl-1-(1H-indazol-5-yl)-2-phenylvinyl)phenyl)acrylic acid]: at ER-α, the Emax is ≥ 40% and the DC50 is ≤ 100 nM. Besides, in the experiment on MCF-7 cells, the “MCF7 Viability Assay Max Response” value is “++ (++ = a single % value ≧ 40%)” and the IC50 is ≤ 100 nM.
As to `CC/C(=C(/c1ccc(/C=C/C(=O)O)cc1)c1ccc2[nH]ncc2c1)c1ccc(F)cc1C` [Compound 25, (E)-3-(4-((E)-2-(4-Fluoro-2-methylphenyl)-1-(1H-indazol-5-yl)but-1-en-1-yl)phenyl)acrylic acid], on ER-α, the Emax was ≥ 40% and the DC50 is ≤ 100 nM. In the experiment on MCF-7 cells, the “MCF7 Viability Assay Max Response” value is “++ (++ = a single % value ≧ 40%)” and the IC50 was ≤ 100 nM.
Regarding `CC/C(=C(/c1ccc(/C=C/C(=O)O)cc1)c1ccc2[nH]ncc2c1)c1c(F)cccc1F` [Compound 26, (E)-3-(4-((E)-2-(2,6-Difluorophenyl)-1-(1H-indazol-5-yl)but-1-en-1-yl)phenyl)acrylic acid], at ER-α, the Emax is ≥ 40% and the DC50 is ≤ 100 nM. In the experiment on MCF-7 cells, the “MCF7 Viability Assay Max Response” value is listed as “++ (++ = a single % value ≧ 40%)” and the IC50 is ≤ 100 nM.
Turning to `CC/C(=C(/c1ccc(/C=C/C(=O)O)cc1)c1ccc2[nH]ncc2c1)c1c(Cl)cccc1Cl` [Compound 27, (E)-3-(4-((E)-2-(2,6-Dichlorophenyl)-1-(1H-indazol-5-yl)but-1-en-1-yl)phenyl)acrylic acid], on ER-α, the Emax is ≥ 40% and the DC50 was ≤ 100 nM. In addition, in the experiment on MCF-7 cells, the “MCF7 Viability Assay Max Response” value was “++ (++ = a single % value ≧ 40%)” and the IC50 was ≤ 100 nM.
As to `[2H]C([2H])([2H])C/C(=C(/c1ccc(/C=C/C(=O)O)cc1)c1ccc2[nH]ncc2c1)c1ccccc1` [Compound 28, (E)-3-(4-((E)-4,4,4-Trideutero-1-(1H-indazol-5-yl)-2-phenylbut-1-en-1-yl)phenyl)acrylic acid], at ER-α, the Emax is ≥ 40%. For the same molecule, in the experiment on MCF-7 cells, the “MCF7 Viability Assay Max Response” value is recorded as “++ (++ = a single % value ≧ 40%)” and the IC50 is ≤ 100 nM.
Consider `CC/C(=C(/c1ccc(/C=C/C(=O)O)cc1)c1ccc2[nH]ncc2c1)c1ccc(F)c(C)c1` [Compound 29, (E)-3-(4-((E)-2-(4-Fluoro-3-methylphenyl)-1-(1H-indazol-5-yl)but-1-en-1-yl)phenyl)acrylic acid], for which, on ER-α, the Emax was ≥ 40% and the DC50 was ≤ 100 nM. For the same molecule, in the experiment with MCF-7 cells, the “MCF7 Viability Assay Max Response” value is on record as “++ (++ = a single % value ≧ 40%)” and the IC50 is ≤ 100 nM.
Turning to `CC/C(=C(/c1ccc(/C=C/C(=O)O)cc1)c1ccc2[nH]ncc2c1)c1cc(F)ccc1C` [Compound 30, (E)-3-(4-((E)-2-(5-Fluoro-2-methylphenyl)-1-(1H-indazol-5-yl)but-1-en-1-yl)phenyl)acrylic acid], at ER-α, the Emax was ≥ 40% and the DC50 is ≤ 100 nM. Further, in the experiment with MCF-7 cells, the “MCF7 Viability Assay Max Response” value is “++ (++ = a single % value ≧ 40%)” and the IC50 is ≤ 100 nM.
